# Reference: patent US10342796B2, “Acrylanilide derivative, preparation method, and applications thereof in pharmacy” (Ancureall Pharmaceutical (Shanghai) Co., Ltd., priority 2015, dated 2019)
# Read-outs that look alike come from different tables or passages of the source.
# Tests used:
# Experiment in all cases: Growth inhibition GI50 in vitro (CCK8/MTT, 72 h)
# Calu-3 (Her2 amp) = type: cell-based; settings: Homo sapiens
# N87 (HER2 Amp) = type: cell-based, human; settings: Homo sapiens
# H292 (EGFR WT) = type: cell-based; settings: Homo sapiens, NCI-H292
# SK-BR-3 (Her2 amp) = type: cell-based, human; settings: Homo sapiens
# AU565 (Her2 amp) = type: cell-based, human; settings: Homo sapiens
# [1] = system: A431 (EGFR WT, amplification and high expression); type: cell-based, human; settings: Homo sapiens, A-431
# A549 (EGFR WT) = type: cell-based, human; settings: Homo sapiens
# [2] = system: H1299 (EGFR wt, Nras Q61K); type: cell-based, human; settings: Homo sapiens, NCI-H1299
# [3] = system: H460 (EGFR wt, Kras G61H); type: cell-based, human; settings: Homo sapiens, NCI-H460
# HCC827 (EGFR dE746-A750) = type: cell-based, human; settings: Homo sapiens
# H1975 (EGFR L858R/T790M) = type: cell-based, human; settings: Homo sapiens, NCI-H1975
# PC-9 (EGFR dE746-A750) = type: cell-based, human; settings: Homo sapiens
# [4] = system: PC-9ER (EGFR delE746-A750/T790M); type: cell-based, human; settings: Homo sapiens, PC-9/ER; EGFR mutant cell line; range of GI50; read-out: GI50 PC9ER
# [5] = Calu-3, EGFR wt, Her2 amp, read-out: GI50
# [6] = HER2 positive cell line, range of GI50, read-out: GI50 N87
# [7] = N87, EGFR wt, Her2 amp, read-out: GI50
# [8] = SK-BR-3, HER2 positive cell line, range of GI50, read-out: GI50 SK-BR-3
# [9] = SK-BR-3, EGFR wt, Her2 amp, read-out: GI50
# [10] = AU565, HER2 positive cell line, range of GI50, read-out: GI50 AU-565
# [11] = AU565, EGFR wt, Her2 amp, read-out: GI50
# [12] = EGFR wild type cell line, range of GI50, read-out: GI50 A431
# [13] = A549, EGFR wild type cell line, range of GI50, read-out: GI50 A549
# [14] = A549, EGFR wt, Kras G12S, read-out: GI50
# [15] = EGFR wild type cell line, range of GI50, read-out: GI50 H1299
# [16] = H1299, EGFR wt, Nras Q61K, read-out: GI50
# [17] = EGFR wild type cell line, range of GI50, read-out: GI50 H460
# [18] = H460, EGFR wt, Kras G61H, read-out: GI50
# [19] = HCC827, EGFR mutant cell line, range of GI50, read-out: GI50 HCC827
# [20] = HCC827, EGFR dE746-A750, read-out: GI50
# [21] = EGFR mutant cell line, range of GI50, read-out: GI50 H1975
# [22] = H1975, EGFR L858R/T790M, read-out: GI50
# [23] = EGFR mutant cell line, range of GI50, read-out: GI50 PC-9
# [24] = PC-9, EGFR dE746-A750, read-out: GI50
SMILES,GI50 (Calu-3 (Her2 amp); [5]),"GI50 (H292 (EGFR WT); H292, EGFR wt, read-out: GI50)",GI50 (SK-BR-3 (Her2 amp); [8]),GI50 (SK-BR-3 (Her2 amp); [9]),"GI50 ([1]; A431, EGFR wt, read-out: GI50)","GI50 [1, 12]",GI50 (A549 (EGFR WT); [13]),GI50 (A549 (EGFR WT); [14]),"GI50 [2, 15]","GI50 [2, 16]","GI50 [3, 17]","GI50 [3, 18]",GI50 (HCC827 (EGFR dE746-A750); [19]),GI50 (H1975 (EGFR L858R/T790M); [21]),GI50 (PC-9 (EGFR dE746-A750); [23]),GI50 [4],GI50 (N87 (HER2 Amp); [6]),GI50 (N87 (HER2 Amp); [7]),GI50 (AU565 (Her2 amp); [10]),GI50 (AU565 (Her2 amp); [11]),also measured
"C=CC(=O)Nc1cc(Nc2cc(Nc3ccc(F)c(Cl)c3)ncn2)c(OC)cc1N(C)CCN(C)C [Compound 140, N-(5-(6-(3-chloro-4-fluoro-phenylamino)-pyrimidin-4-ylamino)-2-((2-dimethylamino-ethyl)-methyl-amino)-4-methoxyl-phenyl)-acrylamide]",12.5 nM,> 1000 nM,< 10 nM,5.6 nM,37.5 nM,10 to 100 nM,> 1000 nM,> 1000 nM,> 1000 nM,> 1000 nM,> 1000 nM,> 1000 nM,< 10 nM,< 10 nM,< 10 nM,< 10 nM,< 10 nM,4.8 nM,< 10 nM,2.6 nM,GI50 (HCC827 (EGFR dE746-A750); [20]): 1.1 nM; GI50 (H1975 (EGFR L858R/T790M); [22]): 3.8 nM; GI50 (PC-9 (EGFR dE746-A750); [24]): 0.38 nM
"C=CC(=O)Nc1cc(Nc2cc(Nc3ccc(F)c(Cl)c3)ncn2)c(OC)cc1N1CCN(C2CCN(C)CC2)CC1 [Compound 147, N-(5-(6-(3-chloro-4-fluoro-phenylamino)-pyrimidin-4-ylamino)-4-methoxyl-2-(4-(1-methylpiperidin-4-yl)-piperazin-1-yl)-phenyl)-acrylamide]",12.5 nM,> 1000 nM,< 10 nM,5.6 nM,37.5 nM,10 to 100 nM,> 1000 nM,896 nM,> 1000 nM,> 1000 nM,> 1000 nM,> 1000 nM,< 10 nM,< 10 nM,< 10 nM,< 10 nM,< 10 nM,4.8 nM,< 10 nM,2.6 nM,GI50 (HCC827 (EGFR dE746-A750); [20]): 4.7 nM; GI50 (H1975 (EGFR L858R/T790M); [22]): 4.6 nM; GI50 (PC-9 (EGFR dE746-A750); [24]): 0.58 nM
C=CC(=O)Nc1cc(Nc2cc(-c3cn(C(C)C)c4ccccc34)ncn2)c(OC)cc1N(C)CCN(C)C [Compound 183],23.4 nM,> 1000 nM,10 to 100 nM,78.1 nM,315 nM,100 to 1000 nM,> 1000 nM,> 1000 nM,> 1000 nM,> 1000 nM,> 1000 nM,> 1000 nM,< 10 nM,10 to 100 nM,< 10 nM,10 to 100 nM,10 to 100 nM,19.5 nM,10 to 100 nM,19.5 nM,GI50 (HCC827 (EGFR dE746-A750); [20]): 9 nM; GI50 (H1975 (EGFR L858R/T790M); [22]): 12.5 nM; GI50 (PC-9 (EGFR dE746-A750); [24]): 3.38 nM

# Continued, in another order:
GI50 (Calu-3 (Her2 amp); [5]),"GI50 (H292 (EGFR WT); H292, EGFR wt, read-out: GI50)",GI50 (SK-BR-3 (Her2 amp); [8]),GI50 (SK-BR-3 (Her2 amp); [9]),"GI50 ([1]; A431, EGFR wt, read-out: GI50)","GI50 [1, 12]",GI50 (A549 (EGFR WT); [13]),GI50 (A549 (EGFR WT); [14]),"GI50 [2, 15]","GI50 [2, 16]","GI50 [3, 17]","GI50 [3, 18]",GI50 (HCC827 (EGFR dE746-A750); [19]),GI50 (H1975 (EGFR L858R/T790M); [21]),GI50 (PC-9 (EGFR dE746-A750); [23]),GI50 [4],SMILES,GI50 (N87 (HER2 Amp); [6]),GI50 (N87 (HER2 Amp); [7]),GI50 (AU565 (Her2 amp); [10]),GI50 (AU565 (Her2 amp); [11]),also measured
23.4 nM,> 1000 nM,10 to 100 nM,39.1 nM,438 nM,100 to 1000 nM,> 1000 nM,> 1000 nM,> 1000 nM,> 1000 nM,> 1000 nM,> 1000 nM,10 to 100 nM,10 to 100 nM,10 to 100 nM,< 10 nM,"C=CC(=O)Nc1cc(Nc2nccc(Nc3ccc(OCc4ccccn4)c(Cl)c3)n2)c(OC)cc1N(C)CCN(C)C [Compound 18, N-(5-(4-(3-chloro-4-(pyridin-2-methoxyl)phenylamino)pyrimidin-2-ylamino)-2-((2-(dimethylamino)ethyl)(methyl)amino)-4-methoxyl-phenyl)-acrylamide]",10 to 100 nM,19.5 nM,10 to 100 nM,15.6 nM,GI50 (HCC827 (EGFR dE746-A750); [20]): 9.4 nM; GI50 (H1975 (EGFR L858R/T790M); [22]): 14.6 nM; GI50 (PC-9 (EGFR dE746-A750); [24]): 14.5 nM
7.2 nM,> 1000 nM,< 10 nM,4.8 nM,117 nM,100 to 1000 nM,> 1000 nM,> 1000 nM,> 1000 nM,> 1000 nM,> 1000 nM,> 1000 nM,< 10 nM,10 to 100 nM,< 10 nM,10 to 100 nM,"C=CC(=O)Nc1cc(Nc2ncnc(Nc3cccc(F)c3)n2)c(OC)cc1N(C)CCN(C)C [Compound 114, N-(5-(4-(3-fluoro-phenylamino)-[1,3,5]triazin-2-ylamino)-2-((2-dimethylamino-ethyl)-methyl-amino)-4-methoxyl-phenyl)-acrylamide]",< 10 nM,4.8 nM,< 10 nM,10 nM,GI50 (HCC827 (EGFR dE746-A750); [20]): 1.1 nM; GI50 (H1975 (EGFR L858R/T790M); [22]): 10 nM; GI50 (PC-9 (EGFR dE746-A750); [24]): 2 nM
,,10 to 100 nM,,,100 to 1000 nM,> 1000 nM,,> 1000 nM,,> 1000 nM,,10 to 100 nM,< 10 nM,10 to 100 nM,< 10 nM,"C=CC(=O)Nc1cc(Nc2nccc(-n3ccc4c(OC)cccc43)n2)c(OC)cc1N(C)CCN(C)C [Compound 99, N-(5-(4-(4-methoxyl-1H-indol-1-yl)-pyrimidin-2-ylamino)-2-(2-(dimethylamino-ethyl)-methyl-amino)-4-methoxyl-phenyl)-acrylamide]",< 10 nM,,10 to 100 nM,,"GI50 (Calu-3 (Her2 amp); Calu-3, Table 16, 1000 nM to 0.03 nM serial dilution, read-out: GI50 Calu3 (HER2 amp)): 3.26 nM; GI50 (N87 (HER2 Amp); Table 16, 1000 nM to 0.03 nM serial dilution, read-out: GI50 N87 (HER2 amp)): 1.35 nM; GI50 (H292 (EGFR WT); Table 15, 1000 nM to 0.03 nM serial dilution, read-out: GI50 H292 (EGFR WT)): > 1000 nM; GI50 (A549 (EGFR WT); A549, Table 15, 1000 nM to 0.03 nM serial dilution, read-out: GI50 A549 (EGFR WT)): > 1000 nM; GI50 (H1975 (EGFR L858R/T790M); Table 15, 1000 nM to 0.03 nM serial dilution, read-out: GI50 H1975 (EGFR L858R/T790M)): 9.25 nM; GI50 (PC-9 (EGFR dE746-A750); Table 15, 1000 nM to 0.03 nM serial dilution, read-out: GI50 PC-9 (EGFR dE746-A750)): 14.1 nM"
